# Target: 2009 pandemic H1N1 (pH1N1) PAN endonuclease (Influenza A virus, UniProt C3W5S0)
# Conditions: for improvement in inhibitory activity compared to 2: relative to compound 2
Structure (SMILES),improvement in inhibitory activity compared to 2,"IC50 (enzymatic assay, PAN endonuclease)"
O=c1[nH]c(-c2ccc(F)cc2)c(-c2ccc(F)cc2)cc1O [Compound 6],400 fold,–
N#Cc1cccc(-c2c[nH]c(=O)c(O)c2)c1 [Compound 3],20 fold,–
O=c1[nH]cc(Br)cc1O [Compound 2],–,16 µM
O=c1[nH]c(-c2ccccc2)ccc1O [Compound 4],40 fold,–

# — publication PMC3928712 (ACS chemical biology, 2013)
